Tests used:
EPHA5 = EPHA5 (Homo sapiens, UniProt P54756); experiment: biochemical; conditions: read-out: Percent control
FGFR1 = FGFR1 (Homo sapiens, UniProt P11362); conditions: 10 μM
KIT(L576P) = KIT(L576P) (Homo sapiens, UniProt P10721, L576P); conditions: 10 μM
EPHA6 = target: T1, EPHA6 (Homo sapiens, UniProt Q9UF33); conditions: 10 μM
T1 sequence (Q9UF33 23-1036): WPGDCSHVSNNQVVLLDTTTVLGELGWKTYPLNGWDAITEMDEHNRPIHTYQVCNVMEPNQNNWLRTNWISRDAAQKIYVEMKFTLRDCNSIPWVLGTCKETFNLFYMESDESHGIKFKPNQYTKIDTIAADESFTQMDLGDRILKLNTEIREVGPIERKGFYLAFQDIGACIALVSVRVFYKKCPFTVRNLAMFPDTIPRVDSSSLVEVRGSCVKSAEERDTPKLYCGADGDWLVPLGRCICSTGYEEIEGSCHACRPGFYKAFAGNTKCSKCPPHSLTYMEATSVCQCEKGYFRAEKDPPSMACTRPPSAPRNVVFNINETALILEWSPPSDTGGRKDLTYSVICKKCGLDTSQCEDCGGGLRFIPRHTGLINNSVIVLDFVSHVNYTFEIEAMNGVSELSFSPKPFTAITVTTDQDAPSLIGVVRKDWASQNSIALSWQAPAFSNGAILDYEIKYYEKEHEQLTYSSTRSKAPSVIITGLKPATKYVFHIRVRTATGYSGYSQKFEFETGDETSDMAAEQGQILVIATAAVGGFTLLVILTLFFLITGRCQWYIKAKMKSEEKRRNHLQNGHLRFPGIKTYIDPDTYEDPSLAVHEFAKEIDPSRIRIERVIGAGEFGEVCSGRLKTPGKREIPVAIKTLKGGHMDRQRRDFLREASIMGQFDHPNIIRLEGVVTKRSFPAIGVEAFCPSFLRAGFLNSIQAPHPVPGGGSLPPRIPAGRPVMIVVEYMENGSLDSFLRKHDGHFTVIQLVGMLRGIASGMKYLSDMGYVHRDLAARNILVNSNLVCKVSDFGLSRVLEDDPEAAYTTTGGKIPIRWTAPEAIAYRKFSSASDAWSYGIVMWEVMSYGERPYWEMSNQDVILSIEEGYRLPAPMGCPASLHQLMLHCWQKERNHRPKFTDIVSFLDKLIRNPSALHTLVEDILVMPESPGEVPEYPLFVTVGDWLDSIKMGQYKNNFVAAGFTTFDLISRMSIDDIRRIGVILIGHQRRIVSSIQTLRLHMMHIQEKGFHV

MST1R = target: T2, MST1R (Homo sapiens, UniProt Q04912); assay type: binding; conditions: 10 μM
T2 construct: purchased DiscoveRx KINOMEscan
T2 sequence (Q04912 25-1400): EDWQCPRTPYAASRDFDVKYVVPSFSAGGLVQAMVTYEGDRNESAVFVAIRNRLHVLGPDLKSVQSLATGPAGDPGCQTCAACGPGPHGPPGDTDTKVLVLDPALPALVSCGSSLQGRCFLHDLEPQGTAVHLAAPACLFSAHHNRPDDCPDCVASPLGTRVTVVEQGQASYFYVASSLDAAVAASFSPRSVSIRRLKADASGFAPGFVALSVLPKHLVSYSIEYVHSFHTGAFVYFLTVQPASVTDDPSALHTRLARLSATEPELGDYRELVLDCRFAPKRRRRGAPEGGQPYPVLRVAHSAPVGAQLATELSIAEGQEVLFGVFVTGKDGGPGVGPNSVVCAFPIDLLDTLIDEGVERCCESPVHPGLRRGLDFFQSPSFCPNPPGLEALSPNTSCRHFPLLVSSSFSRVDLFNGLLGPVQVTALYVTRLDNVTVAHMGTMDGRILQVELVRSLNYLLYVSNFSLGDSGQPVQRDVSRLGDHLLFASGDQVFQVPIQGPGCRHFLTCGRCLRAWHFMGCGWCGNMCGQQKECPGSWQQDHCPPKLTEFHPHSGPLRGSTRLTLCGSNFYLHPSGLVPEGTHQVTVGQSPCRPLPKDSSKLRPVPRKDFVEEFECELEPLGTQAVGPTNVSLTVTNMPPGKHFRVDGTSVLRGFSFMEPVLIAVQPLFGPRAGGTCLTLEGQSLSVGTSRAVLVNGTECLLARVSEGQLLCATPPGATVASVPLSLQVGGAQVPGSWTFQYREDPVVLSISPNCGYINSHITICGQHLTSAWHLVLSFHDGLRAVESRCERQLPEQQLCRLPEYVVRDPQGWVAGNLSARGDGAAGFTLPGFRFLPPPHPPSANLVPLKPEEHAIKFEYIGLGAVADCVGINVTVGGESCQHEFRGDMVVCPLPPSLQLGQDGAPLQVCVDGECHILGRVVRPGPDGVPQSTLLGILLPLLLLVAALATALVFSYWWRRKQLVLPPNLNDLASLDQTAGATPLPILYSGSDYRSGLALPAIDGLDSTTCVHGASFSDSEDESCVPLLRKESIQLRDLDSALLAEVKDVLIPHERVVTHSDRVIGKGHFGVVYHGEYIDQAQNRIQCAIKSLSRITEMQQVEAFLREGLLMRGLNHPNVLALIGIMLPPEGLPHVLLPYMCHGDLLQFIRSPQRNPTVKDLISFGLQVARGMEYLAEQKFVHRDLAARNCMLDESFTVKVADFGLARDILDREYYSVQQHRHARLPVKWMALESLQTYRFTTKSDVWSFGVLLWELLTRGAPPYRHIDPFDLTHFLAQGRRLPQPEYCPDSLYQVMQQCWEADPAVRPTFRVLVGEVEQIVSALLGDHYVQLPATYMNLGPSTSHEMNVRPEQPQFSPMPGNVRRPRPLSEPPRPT

EPHB1 = target: T3, EPHB1 (Homo sapiens, UniProt P54762); conditions: 10 μM
T3 sequence (P54762 18-984): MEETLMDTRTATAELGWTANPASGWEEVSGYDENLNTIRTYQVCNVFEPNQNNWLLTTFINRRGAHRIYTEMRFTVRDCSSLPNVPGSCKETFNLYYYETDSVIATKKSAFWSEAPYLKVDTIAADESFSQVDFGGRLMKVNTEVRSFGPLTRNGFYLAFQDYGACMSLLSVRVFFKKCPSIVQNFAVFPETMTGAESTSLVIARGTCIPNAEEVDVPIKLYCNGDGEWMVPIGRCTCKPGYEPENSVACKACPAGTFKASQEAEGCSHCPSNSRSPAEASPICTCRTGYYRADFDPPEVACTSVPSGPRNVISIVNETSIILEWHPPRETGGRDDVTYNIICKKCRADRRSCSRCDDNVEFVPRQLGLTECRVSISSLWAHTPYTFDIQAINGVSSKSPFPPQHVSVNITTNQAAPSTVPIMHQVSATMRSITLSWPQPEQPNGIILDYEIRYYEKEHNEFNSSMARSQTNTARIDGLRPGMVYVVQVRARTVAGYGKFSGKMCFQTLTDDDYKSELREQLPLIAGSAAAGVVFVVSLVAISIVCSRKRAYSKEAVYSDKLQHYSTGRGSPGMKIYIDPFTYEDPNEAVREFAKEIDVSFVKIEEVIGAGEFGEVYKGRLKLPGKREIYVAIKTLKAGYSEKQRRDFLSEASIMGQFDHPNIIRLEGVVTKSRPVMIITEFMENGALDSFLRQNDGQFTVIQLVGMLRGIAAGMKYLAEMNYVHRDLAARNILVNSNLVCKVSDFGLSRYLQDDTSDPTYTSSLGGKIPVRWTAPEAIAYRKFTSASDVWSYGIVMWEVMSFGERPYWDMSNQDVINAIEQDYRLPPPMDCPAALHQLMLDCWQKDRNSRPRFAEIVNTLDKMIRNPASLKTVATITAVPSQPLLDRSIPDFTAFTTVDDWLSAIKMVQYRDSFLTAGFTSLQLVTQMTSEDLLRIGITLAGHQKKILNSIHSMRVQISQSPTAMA

KIT(V559D) = KIT(V559D) (Homo sapiens, UniProt P10721, V559D); conditions: 10 μM
RET(V804TL) = RET(V804TL) (Homo sapiens, UniProt P07949, V804L); conditions: 10 μM
Sequence of RET(V804TL) (P07949 29-1114 V804L): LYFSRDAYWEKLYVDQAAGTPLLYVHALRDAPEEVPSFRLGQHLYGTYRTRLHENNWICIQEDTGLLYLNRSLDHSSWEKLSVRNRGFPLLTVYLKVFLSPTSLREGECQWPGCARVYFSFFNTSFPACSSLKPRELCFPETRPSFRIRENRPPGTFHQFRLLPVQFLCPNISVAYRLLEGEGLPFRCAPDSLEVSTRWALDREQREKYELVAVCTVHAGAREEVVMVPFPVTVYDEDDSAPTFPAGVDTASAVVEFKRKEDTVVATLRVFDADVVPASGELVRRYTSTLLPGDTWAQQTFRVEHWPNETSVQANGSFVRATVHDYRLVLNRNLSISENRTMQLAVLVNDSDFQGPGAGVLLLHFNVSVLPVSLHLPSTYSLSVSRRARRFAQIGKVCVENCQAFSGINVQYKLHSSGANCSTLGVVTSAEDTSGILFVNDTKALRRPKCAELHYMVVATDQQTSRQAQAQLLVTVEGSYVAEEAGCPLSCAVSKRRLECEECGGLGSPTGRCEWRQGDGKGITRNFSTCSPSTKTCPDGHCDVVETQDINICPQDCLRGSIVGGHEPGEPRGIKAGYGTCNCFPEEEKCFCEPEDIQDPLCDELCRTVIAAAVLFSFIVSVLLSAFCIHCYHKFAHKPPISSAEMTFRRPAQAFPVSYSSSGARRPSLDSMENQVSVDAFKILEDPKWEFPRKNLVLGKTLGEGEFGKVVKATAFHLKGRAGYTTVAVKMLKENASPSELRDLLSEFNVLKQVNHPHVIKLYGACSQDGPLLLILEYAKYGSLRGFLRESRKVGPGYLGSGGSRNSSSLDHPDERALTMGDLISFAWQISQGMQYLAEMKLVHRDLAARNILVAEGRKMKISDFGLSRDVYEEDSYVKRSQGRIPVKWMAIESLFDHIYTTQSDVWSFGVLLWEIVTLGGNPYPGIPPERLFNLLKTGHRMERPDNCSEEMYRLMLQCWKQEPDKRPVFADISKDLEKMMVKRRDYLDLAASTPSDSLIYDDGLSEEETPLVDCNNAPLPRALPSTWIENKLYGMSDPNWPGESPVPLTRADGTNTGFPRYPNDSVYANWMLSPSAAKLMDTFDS

TIE2 = TIE2 (Homo sapiens, UniProt Q02763); conditions: 10 μM
Sequence of TIE2 (Q02763 23-1124): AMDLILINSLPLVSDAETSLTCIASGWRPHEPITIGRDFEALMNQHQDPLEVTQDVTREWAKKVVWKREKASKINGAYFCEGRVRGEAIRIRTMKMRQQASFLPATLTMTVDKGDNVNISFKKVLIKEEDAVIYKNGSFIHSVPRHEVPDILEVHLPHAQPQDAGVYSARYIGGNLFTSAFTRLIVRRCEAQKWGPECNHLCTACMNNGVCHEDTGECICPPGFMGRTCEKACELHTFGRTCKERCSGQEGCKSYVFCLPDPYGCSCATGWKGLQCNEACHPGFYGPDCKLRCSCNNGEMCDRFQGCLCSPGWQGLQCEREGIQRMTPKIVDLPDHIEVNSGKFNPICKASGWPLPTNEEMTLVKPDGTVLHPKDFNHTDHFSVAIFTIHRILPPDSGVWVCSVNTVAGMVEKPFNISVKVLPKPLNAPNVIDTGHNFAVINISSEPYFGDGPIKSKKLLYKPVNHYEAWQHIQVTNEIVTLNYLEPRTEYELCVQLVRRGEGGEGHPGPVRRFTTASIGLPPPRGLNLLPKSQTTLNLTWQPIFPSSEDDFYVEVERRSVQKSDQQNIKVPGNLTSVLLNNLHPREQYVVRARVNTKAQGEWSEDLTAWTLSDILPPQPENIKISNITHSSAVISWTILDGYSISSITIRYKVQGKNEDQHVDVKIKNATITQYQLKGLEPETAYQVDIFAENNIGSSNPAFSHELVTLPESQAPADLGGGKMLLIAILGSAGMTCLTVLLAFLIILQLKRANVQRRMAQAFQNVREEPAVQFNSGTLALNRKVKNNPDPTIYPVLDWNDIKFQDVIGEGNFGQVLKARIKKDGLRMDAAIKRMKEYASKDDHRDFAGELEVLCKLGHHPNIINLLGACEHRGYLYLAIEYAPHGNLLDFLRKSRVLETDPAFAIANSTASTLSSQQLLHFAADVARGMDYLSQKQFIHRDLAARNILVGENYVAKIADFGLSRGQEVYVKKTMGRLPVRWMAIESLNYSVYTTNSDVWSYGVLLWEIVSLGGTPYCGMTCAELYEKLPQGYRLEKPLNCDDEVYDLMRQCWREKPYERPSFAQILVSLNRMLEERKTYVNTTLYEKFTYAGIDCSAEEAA

Sequence of FGFR1 (P11362 22-822): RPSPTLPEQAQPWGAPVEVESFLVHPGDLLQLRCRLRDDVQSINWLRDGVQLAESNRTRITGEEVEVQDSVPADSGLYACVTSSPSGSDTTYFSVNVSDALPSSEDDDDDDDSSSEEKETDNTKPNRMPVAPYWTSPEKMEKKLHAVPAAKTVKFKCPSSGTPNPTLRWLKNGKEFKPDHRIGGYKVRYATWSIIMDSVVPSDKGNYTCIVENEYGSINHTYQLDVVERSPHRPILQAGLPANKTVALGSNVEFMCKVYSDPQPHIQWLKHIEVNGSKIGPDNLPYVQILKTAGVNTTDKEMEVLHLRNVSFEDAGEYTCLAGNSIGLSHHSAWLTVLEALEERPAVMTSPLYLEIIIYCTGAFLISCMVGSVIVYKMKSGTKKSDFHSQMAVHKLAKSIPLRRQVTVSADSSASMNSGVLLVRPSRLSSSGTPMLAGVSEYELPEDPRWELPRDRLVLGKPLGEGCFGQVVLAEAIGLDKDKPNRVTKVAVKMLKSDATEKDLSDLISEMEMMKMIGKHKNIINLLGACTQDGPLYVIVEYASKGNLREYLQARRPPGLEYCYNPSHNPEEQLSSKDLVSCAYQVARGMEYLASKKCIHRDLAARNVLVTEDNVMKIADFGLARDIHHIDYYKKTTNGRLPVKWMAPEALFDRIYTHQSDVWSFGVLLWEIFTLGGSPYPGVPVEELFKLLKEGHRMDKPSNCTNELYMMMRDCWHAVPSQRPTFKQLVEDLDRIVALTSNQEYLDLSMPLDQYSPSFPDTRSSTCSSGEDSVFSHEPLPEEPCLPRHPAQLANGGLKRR

SMILES: C#Cc1cccc(Nc2ncnc3cc(OCCOC)c(OCCOC)cc23)c1 [Erlotinib]
- remaining activity at 10 µM (EPHA5): 6.6%

SMILES: Cc1ccc(NC(=O)c2ccc(CN3CCN(C)CC3)cc2)cc1Nc1nccc(-c2cccnc2)[n+]1[Pt-2]1([Cl])[NH2+]C2CCCCC2[NH2+]1 (stereo not shown) [1b, oxaliplatin-imatinib]
- Percent control (FGFR1): 96%
- Percent control (KIT(L576P)): 0.9%
- Percent control (EPHA6): 90%
- Percent control (MST1R): 100%
- Percent control (EPHB1): 94%
- Percent control (KIT(V559D)): 0%
- Percent control (RET(V804TL)): 100%
- Percent control (TIE2): 94%

SMILES: COc1cc2c(Nc3ccc(Br)cc3F)ncnc2cc1OCC1CCN(C)CC1 [Vandetanib, reference compound]
- remaining activity at 10 µM (EPHA5): 2.3%

SMILES: COc1cc2c(Nc3ccc(Br)cc3F)[n+]([Pt-2]3([Cl])[NH2+]C4CCCCC4[NH2+]3)cnc2cc1OCC1CCN(C)CC1 (stereo not shown) [3b, oxaliplatin-vandetanib]
- Percent control (KIT(L576P)): 2.2%
- Percent control (EPHA6): 6.3%
- Percent control (MST1R): 100%
- Percent control (EPHB1): 31%
- Percent control (KIT(V559D)): 0.5%
- Percent control (TIE2): 49%

SMILES: C#Cc1cccc(Nc2c3cc(OCCOC)c(OCCOC)cc3nc[n+]2[Pt@SP2-2]([NH3+])([NH3+])[Cl])c1 [2a, cisplatin-erlotinib]
- Percent control (FGFR1): 77%
- Percent control (KIT(L576P)): 73%
- Percent control (EPHA6): 71%
- Percent control (MST1R): 100%
- Percent control (EPHB1): 90%
- Percent control (KIT(V559D)): 88%
- Percent control (RET(V804TL)): 100%
- Percent control (TIE2): 94%

SMILES: Cc1ccc(NC(=O)c2ccc(CN3CCN(C)CC3)cc2)cc1Nc1nccc(-c2cccnc2)n1 [Imatinib, reference compound]
- Percent control (FGFR1): 100%
- Percent control (EPHA6): 100%
- Percent control (MST1R): 100%
- remaining activity at 10 µM (EPHA5): 100%
- Percent control (EPHB1): 100%
- Percent control (RET(V804TL)): 100%
- Percent control (TIE2): 100%

— publication PMC4858680, “A platinum-based hybrid drug design approach to circumvent acquired resistance to molecular targeted tyrosine kinase inhibitors” (Scientific Reports, 2016)
